From patent publication US10533010B2, “Substituted indole Mcl-1 inhibitors” (Vanderbilt University, priority 2014, dated 2020) come the findings set out here.

The assay concerns the target recombinant Mcl-1 (residues 172-327) (Homo sapiens (Human), UniProt Q07820). Nature of the assay: Fluorescence polarization anisotropy competition assay (FITC-Bak or FITC-Bim BH3 peptide) with Mcl-1. The format is binding. Conditions: Table 2; Ki bins given in nM; FITC-Bak or FITC-Bim peptide competition; Ki converted from IC50; read-out: Ki for Inhibition of Mcl-1.

Sequence of recombinant Mcl-1 (residues 172-327) (Q07820 172-327): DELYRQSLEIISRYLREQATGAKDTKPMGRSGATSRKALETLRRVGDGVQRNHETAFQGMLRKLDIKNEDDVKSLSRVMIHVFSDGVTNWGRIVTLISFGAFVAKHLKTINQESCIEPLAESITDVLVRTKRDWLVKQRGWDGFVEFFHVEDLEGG

As to `Cc1cc(OCCCc2c3n(c4c(-c5c(C)nn(C)c5C)c(Cl)ccc24)C[C@@H](C)N(Cc2ccc(C(=O)O)o2)C3=O)cc(C)c1Cl` [I-123, (R)-5-((7-chloro-10-(3-(4-chloro-3,5-dimethylphenoxy)propyl)-3-methyl-1-oxo-6-(1,3,5-trimethyl-1H-pyrazol-4-yl)-3,4-dihydropyrazino[1,2-a]indol-2(1H)-yl)methyl)furan-2-carboxylic acid], the Ki was less than 50 nM.
Take `Cc1cc(OCCCc2c(C(=O)NCc3cccc(C(=O)NS(=O)(=O)c4ccccc4C#N)c3)[nH]c3c(-c4c(C)n[nH]c4C)cccc23)cc(C)c1Cl` [I-26, 3-(3-(4-chloro-3,5-dimethylphenoxy)propyl)-N-(3-(((2-cyanophenyl)sulfonyl)carbamoyl)benzyl)-7-(3,5-dimethyl-1H-pyrazol-4-yl)-1H-indole-2-carboxamide]: the Ki is less than 50 nM.
Turning to `Cc1cc(OCCCc2c(C(=O)N(C)Cc3ccc(C(=O)O)cc3)n(CCN3CCOCC3)c3c(-c4c(C)nn(C)c4C)c(Cl)ccc23)cc(C)c1Cl` [I-374, 4-((6-chloro-3-(3-(4-chloro-3,5-dimethylphenoxy)propyl)-N-methyl-1-(2-morpholinoethyl)-7-(1,3,5-trimethyl-1H-pyrazol-4-yl)-1H-indole-2-carboxamido)methyl)benzoic acid], the Ki was less than 50 nM.
In the case of `Cc1cc(OCCCc2c3n(c4c(-c5c(C)nn(C)c5C)c(Cl)ccc24)CC(C)CN(Cc2ccc(C(=O)O)o2)C3=O)cc(C)c1Cl` (centres unmarked) [I-132, 5-((8-chloro-1-(3-(4-chloro-3,5-dimethylphenoxy)propyl)-4-methyl-1-oxo-7-(1,3,5-trimethyl-1H-pyrazol-4-yl)-4,5-dihydro-1H-[1,4]diazepino[1,2-a]indol-2(3H)-yl)methyl)furan-2-carboxylic acid], the Ki is less than 50 nM.
As to `Cc1cc(OCCCc2c3n(c4c(-c5c(C)nn(C)c5C)c(Cl)ccc24)[C@@H](C)CN(Cc2ccc(C(=O)O)o2)C3=O)cc(C)c1Cl` [I-148, (S)-5-((7-chloro-10-(3-(4-chloro-3,5-dimethylphenoxy)propyl)-4-methyl-1-oxo-6-(1,3,5-trimethyl-1H-pyrazol-4-yl)-3,4-dihydropyrazino[1,2-a]indol-2(1H)-yl)methyl)furan-2-carboxylic acid], the Ki was less than 50 nM.
Take `Cc1cc(OCCCc2c3n(c4c(-c5c(C)nn(C)c5C)c(Cl)ccc24)CCN(c2cc(NC4CCOCC4)cc(C(=O)O)c2)C3=O)cc(C)c1Cl` [I-214, 3-(7-chloro-10-(3-(4-chloro-3,5-dimethylphenoxy)propyl)-1-oxo-6-(1,3,5-trimethyl-1H-pyrazol-4-yl)-3,4-dihydropyrazino[1,2-a]indol-2(1H)-yl)-5-((tetrahydro-2H-pyran-4-yl)amino)benzoic acid]: the Ki is less than 50 nM.
Take `Cc1cc(OCCCc2c(C(=O)Nc3cccc(C(=O)O)c3)[nH]c3c(-c4c(C)nn(CCN5CCOCC5)c4C)c(Cl)ccc23)cc(C)c1Cl` [I-191, 3-(6-chloro-3-(3-(4-chloro-3,5-dimethylphenoxy)propyl)-7-(3,5-dimethyl-1-(2-morpholinoethyl)-1H-pyrazol-4-yl)-1H-indole-2-carboxamido)benzoic acid]: the Ki was less than 50 nM.
Consider `Cc1cc(OCCCc2c3n(c4c(-c5c(C)nn(C)c5C)c(Cl)ccc24)[C@H](C)CN(c2cc(C(=O)O)cc4c2ccn4C)C3=O)cc(C)c1Cl` [I-170, (R)-4-(7-chloro-10-(3-(4-chloro-3,5-dimethylphenoxy)propyl)-4-methyl-1-oxo-6-(1,3,5-trimethyl-1H-pyrazol-4-yl)-3,4-dihydropyrazino[1,2-a]indol-2(1H)-yl)-1-methyl-1H-indole-6-carboxylic acid], for which the Ki was less than 50 nM.
For `Cc1cc(OCCCc2c3n(c4c(-c5c(C)nn(C)c5C)c(Cl)ccc24)CCCN(c2ncc(C(=O)O)s2)C3=O)cc(C)c1Cl` [I-358, 2-(8-chloro-11-(3-(4-chloro-3,5-dimethylphenoxy)propyl)-1-oxo-7-(1,3,5-trimethyl-1H-pyrazol-4-yl)-4,5-dihydro-1H-[1,4]diazepino[1,2-a]indol-2(3H)-yl)thiazole-5-carboxylic acid], the Ki is less than 50 nM.
Turning to `Cc1cc(OCCCc2c(C(=O)Nc3cccc(CC(=O)O)c3)[nH]c3c(-c4c(C)nn(C)c4C)cccc23)cc(C)c1Cl` [I-206, 2-(3-(3-(3-(4-chloro-3,5-dimethylphenoxy)propyl)-7-(1,3,5-trimethyl-1H-pyrazol-4-yl)-1H-indole-2-carboxamido)phenyl)acetic acid], the Ki is less than 50 nM.
In the case of `Cc1cc(OCCCc2c(C(=O)Nc3cccc(C#N)c3)[nH]c3c(-c4c(C)nn(C)c4C)c(Cl)ccc23)cc(C)c1Cl` [I-352, 6-chloro-3-(3-(4-chloro-3,5-dimethylphenoxy)propyl)-N-(3-cyanophenyl)-7-(1,3,5-trimethyl-1H-pyrazol-4-yl)-1H-indole-2-carboxamide], the Ki is 51 to 100 nM.
Regarding `Cc1cc(OCCCc2c(C(=O)Nc3cc(C(=O)O)cc(N4CCN(C)CC4)c3)[nH]c3c(-c4c(C)nn(C)c4C)c(Cl)ccc23)cc(C)c1Cl` [I-207, 3-(6-chloro-3-(3-(4-chloro-3,5-dimethylphenoxy)propyl)-7-(1,3,5-trimethyl-1H-pyrazol-4-yl)-1H-indole-2-carboxamido)-5-(4-methylpiperazin-1-yl)benzoic acid], the Ki was less than 50 nM.
Then `Cc1cc(OCCCc2c(C(=O)NCC(=O)NS(=O)(=O)c3cccnc3)[nH]c3ccccc23)cc(C)c1Cl` [I-6, 3-(3-(4-chloro-3,5-dimethylphenoxy)propyl)-N-(2-oxo-2-(pyridine-3-sulfonamido)ethyl)-1H-indole-2-carboxamide], with 301 to 500 nM; and `Cc1cc(OCCCc2c3n(c4c(-c5c(C)nn(C)c5C)c(Cl)ccc24)CCCN(c2cccc4c2ccn4CC(=O)O)C3=O)cc(C)c1Cl` [I-348, 2-(4-(8-chloro-11-(3-(4-chloro-3,5-dimethylphenoxy)propyl)-1-oxo-7-(1,3,5-trimethyl-1H-pyrazol-4-yl)-4,5-dihydro-1H-[1,4]diazepino[1,2-a]indol-2(3H)-yl)-1H-indol-1-yl)acetic acid], with less than 50 nM.
For `Cc1cc(OCCCc2c(C(=O)NCc3cc(C(=O)O)cc(N4CCN(C(=O)CC(C)C)CC4)n3)[nH]c3c(-c4c(C)nn(C)c4C)c(Cl)ccc23)cc(C)c1Cl` [I-284, 2-((6-chloro-3-(3-(4-chloro-3,5-dimethylphenoxy)propyl)-7-(1,3,5-trimethyl-1H-pyrazol-4-yl)-1H-indole-2-carboxamido)methyl)-6-(4-(3-methylbutanoyl)piperazin-1-yl)isonicotinic acid], the Ki was less than 50 nM.
As for `Cc1cc(OCCCc2c(C(=O)N(C)Cc3ccc(C(=O)O)o3)n(C)c3c(-c4c(C)nn(C)c4C)cccc23)cc(C)c1Cl` [I-269, 5-((3-(3-(4-chloro-3,5-dimethylphenoxy)propyl)-N,1-dimethyl-7-(1,3,5-trimethyl-1H-pyrazol-4-yl)-1H-indole-2-carboxamido)methyl)furan-2-carboxylic acid], the Ki fell in the range of 101 to 299 nM.
Then `Cc1cc(OCCCc2c3n(c4c(-c5c(C)nn(C)c5C)c(Cl)ccc24)CCCN(Cc2cc(NCCC(C)C)cc(C(=O)O)c2)C3=O)cc(C)c1Cl` [I-328, 3-((8-chloro-11-(3-(4-chloro-3,5-dimethylphenoxy)propyl)-1-oxo-7-(1,3,5-trimethyl-1H-pyrazol-4-yl)-4,5-dihydro-1H-[1,4]diazepino[1,2-a]indol-2(3H)-yl)methyl)-5-(isopentylamino)benzoic acid], with less than 50 nM; and `Cc1cc(OCCCc2c3n(c4c(-c5c(C)nn(C)c5C)c(Cl)ccc24)CCCN(Cc2cc(C(=O)O)cc(Cl)n2)C3=O)cc(C)c1Cl` [I-349, 2-chloro-6-((8-chloro-1-(3-(4-chloro-3,5-dimethylphenoxy)propyl)-1-oxo-7-(1,3,5-trimethyl-1H-pyrazol-4-yl)-4,5-dihydro-1H-[1,4]diazepino[1,2-a]indol-2(3H)-yl)methyl)isonicotinic acid], with less than 50 nM.
In the case of `Cc1cc(OCCCc2c(C(=O)NCC(=O)N[C@@H](CC(C)C)C(=O)O)[nH]c3c(-c4c(C)nn(C)c4C)cccc23)cc(C)c1Cl` [I-292, (3-(3-(4-chloro-3,5-dimethylphenoxy)propyl)-7-(1,3,5-trimethyl-1H-pyrazol-4-yl)-1H-indole-2-carbonyl)glycyl-L-leucine], the Ki was less than 50 nM.
Turning to `Cc1cc(OCCCc2c(C(=O)NCCC(=O)NS(=O)(=O)C3CC3)[nH]c3ccccc23)cc(C)c1Cl` [I-13, 3-(3-(4-chloro-3,5-dimethylphenoxy)propyl)-N-(3-(cyclopropanesulfonamido)-3-oxopropyl)-1H-indole-2-carboxamide], the Ki is 301 to 500 nM.
Then `Cc1cc(OCCCc2c3n(c4c(-c5c(C)nn(C)c5C)c(Cl)ccc24)CCCN(c2cc(C(=O)O)c4ccn(Cc5cccnc5)c4c2)C3=O)cc(C)c1Cl` [I-241, 6-(8-chloro-11-(3-(4-chloro-3,5-dimethylphenoxy)propyl)-1-oxo-7-(1,3,5-trimethyl-1H-pyrazol-4-yl)-4,5-dihydro-1H-[1,4]diazepino[1,2-a]indol-2(3H)-yl)-1-(pyridin-3-ylmethyl)-1H-indole-4-carboxylic acid], with less than 50 nM; and `CC/N=C(/NCCCN(C)C)n1nc(C)c(-c2cccc3c(CCCOc4cc(C)c(Cl)c(C)c4)c(C(=O)NCc4cccc(C(=O)O)c4)[nH]c23)c1C` [I-70, 3-((3-(3-(4-chloro-3,5-dimethylphenoxy)propyl)-7-(1-(N-(3-(dimethylamino)propyl)-N′-ethylcarbamimidoyl)-3,5-dimethyl-1H-pyrazol-4-yl)-1H-indole-2-carboxamido)methyl)benzoic acid], with 51 to 100 nM; and `Cc1cc(OCCCc2c3n(c4c(-c5c(C)nn(C)c5C)c(Cl)ccc24)CCC(C)N(Cc2ccc(C(=O)O)o2)C3=O)cc(C)c1Cl` (centres unmarked) [I-126, 5-((8-chloro-1-(3-(4-chloro-3,5-dimethylphenoxy)propyl)-3-methyl-1-oxo-7-(1,3,5-trimethyl-1H-pyrazol-4-yl)-4,5-dihydro-1H-[1,4]diazepino[1,2-a]indol-2(3H)-yl)methyl)furan-2-carboxylic acid], with less than 50 nM.
